In ChEMBL document CHEMBL4813963, “Discovery of pyrazolo-thieno[3,2-d]pyrimidinylamino-phenyl acetamides as type-II pan-tropomyosin receptor kinase (TRK) inhibitors: Design, synthesis, and biological evaluation” (Eur J Med Chem, 2021):

Experiments:
[1] = system: NCI/ADR-RES; assay: Antiproliferative activity against human NCI/ADR-RES cells assessed as cell growth at 10 uM relative to control; type: functional; conditions: read-out: Activity
[2] = system: LOX IMVI; assay: Antiproliferative activity against human LOX IMVI cells assessed as cell growth at 10 uM relative to control; type: functional; conditions: read-out: Activity
[3] = system: Malme-3M; assay: Antiproliferative activity against human MALME-3M cells assessed as cell growth at 10 uM relative to control; type: functional; conditions: read-out: Activity
[4] = system: U-251; assay: Antiproliferative activity against human U-251 cells assessed as cell growth at 10 uM relative to control; type: functional; conditions: read-out: Activity
[5] = system: SNB-75; assay: Antiproliferative activity against human SNB-75 cells assessed as cell growth at 10 uM relative to control; type: functional; conditions: read-out: Activity
[6] = system: SNB-19; assay: Antiproliferative activity against human SNB-19 cells assessed as cell growth at 10 uM relative to control; type: functional; conditions: read-out: Activity
[7] = system: SF-539; assay: Antiproliferative activity against human SF-539 cells assessed as cell growth at 10 uM relative to control; type: functional; conditions: read-out: Activity
[8] = system: SF-295; assay: Antiproliferative activity against human SF-295 cells assessed as cell growth at 10 uM relative to control; type: functional; conditions: read-out: Activity
[9] = system: SF-268; assay: Antiproliferative activity against human SF-268 cells assessed as cell growth at 10 uM relative to control; type: functional; conditions: read-out: Activity
[10] = system: SW-620; assay: Antiproliferative activity against human SW-620 cells assessed as cell growth at 10 uM relative to control; type: functional; conditions: read-out: Activity
[11] = system: KM12; assay: Antiproliferative activity against human KM12 cells assessed as cell growth at 10 uM relative to control; type: functional; conditions: read-out: Activity
[12] = system: HT-29; assay: Antiproliferative activity against human HT-29 cells assessed as cell growth at 10 uM relative to control; type: functional; conditions: read-out: Activity
[13] = system: HCT-15; assay: Antiproliferative activity against human HCT-15 cells assessed as cell growth at 10 uM relative to control; type: functional; conditions: read-out: Activity
[14] = system: HCT-116; assay: Antiproliferative activity against human HCT-116 cells assessed as cell growth at 10 uM relative to control; type: functional; conditions: read-out: Activity
[15] = system: HCC 2998; assay: Antiproliferative activity against human HCC 2998 cells assessed as cell growth at 10 uM relative to control; type: functional; conditions: read-out: Activity
[16] = system: COLO 205; assay: Antiproliferative activity against human COLO 205 cells assessed as cell growth at 10 uM relative to control; type: functional; conditions: read-out: Activity
[17] = system: NCI-H522; assay: Antiproliferative activity against human NCI-H522 cells assessed as cell growth at 10 uM relative to control; type: functional; conditions: read-out: Activity
[18] = system: NCI-H460; assay: Antiproliferative activity against human NCI-H460 cells assessed as cell growth at 10 uM relative to control; type: functional; conditions: read-out: Activity
[19] = system: NCI-H322M; assay: Antiproliferative activity against human NCI-H322M cells assessed as cell growth at 10 uM relative to control; type: functional; conditions: read-out: Activity
[20] = system: NCI-H23; assay: Antiproliferative activity against human NCI-H23 cells assessed as cell growth at 10 uM relative to control; type: functional; conditions: read-out: Activity
[21] = system: NCI-H226; assay: Antiproliferative activity against human NCI-H226 cells assessed as cell growth at 10 uM relative to control; type: functional; conditions: read-out: Activity
[22] = system: HOP-92; assay: Antiproliferative activity against human HOP-92 cells assessed as cell growth at 10 uM relative to control; type: functional; conditions: read-out: Activity
[23] = system: HOP-62; assay: Antiproliferative activity against human HOP-62 cells assessed as cell growth at 10 uM relative to control; type: functional; conditions: read-out: Activity
[24] = system: EKVX; assay: Antiproliferative activity against human EKVX cells assessed as cell growth at 10 uM relative to control; type: functional; conditions: read-out: Activity
[25] = system: A549; assay: Antiproliferative activity against human A549 cells assessed as cell growth at 10 uM relative to control; type: functional; conditions: read-out: Activity
[26] = system: SR; assay: Antiproliferative activity against human SR cells assessed as cell growth at 10 uM relative to control; type: functional; conditions: read-out: Activity
[27] = system: RPMI-8226; assay: Antiproliferative activity against human RPMI-8226 cells assessed as cell growth at 10 uM relative to control; type: functional; conditions: read-out: Activity
[28] = system: MOLT-4; assay: Antiproliferative activity against human MOLT-4 cells assessed as cell growth at 10 uM relative to control; type: functional; conditions: read-out: Activity
[29] = system: K562; assay: Antiproliferative activity against human K562 cells assessed as cell growth at 10 uM relative to control; type: functional; conditions: read-out: Activity
[30] = system: HL-60(TB); assay: Antiproliferative activity against human HL-60(TB) cells assessed as cell growth at 10 uM relative to control; type: functional; conditions: read-out: Activity
[31] = system: CCRF-CEM; assay: Antiproliferative activity against human CCRF-CEM cells assessed as cell growth at 10 uM relative to control; type: functional; conditions: read-out: Activity
[32] = system: MDA-MB-468; assay: Antiproliferative activity against human MDA-MB-468 cells assessed as cell growth at 10 uM relative to control; type: functional; conditions: read-out: Activity
[33] = system: T47D; assay: Antiproliferative activity against human T47D cells assessed as cell growth at 10 uM relative to control; type: functional; conditions: read-out: Activity
[34] = system: BT-549; assay: Antiproliferative activity against human BT-549 cells assessed as cell growth at 10 uM relative to control; type: functional; conditions: read-out: Activity
[35] = system: Hs-578T; assay: Antiproliferative activity against human Hs-578T cells assessed as cell growth at 10 uM relative to control; type: functional; conditions: read-out: Activity
[36] = system: MDA-MB-231; assay: Antiproliferative activity against human MDA-MB-231 cells assessed as cell growth at 10 uM relative to control; type: functional; conditions: read-out: Activity
[37] = system: MCF7; assay: Antiproliferative activity against human MCF7 cells assessed as cell growth at 10 uM relative to control; type: functional; conditions: read-out: Activity
[38] = system: DU-145; assay: Antiproliferative activity against human DU-145 cells assessed as cell growth at 10 uM relative to control; type: functional; conditions: read-out: Activity
[39] = system: PC-3; assay: Antiproliferative activity against human PC-3 cells assessed as cell growth at 10 uM relative to control; type: functional; conditions: read-out: Activity
[40] = system: UO-31; assay: Antiproliferative activity against human UO-31 cells assessed as cell growth at 10 uM relative to control; type: functional; conditions: read-out: Activity
[41] = system: TK-10; assay: Antiproliferative activity against human TK-10 cells assessed as cell growth at 10 uM relative to control; type: functional; conditions: read-out: Activity
[42] = system: SN12C; assay: Antiproliferative activity against human SN12C cells assessed as cell growth at 10 uM relative to control; type: functional; conditions: read-out: Activity
[43] = system: RXF 393; assay: Antiproliferative activity against human RXF 393 cells assessed as cell growth at 10 uM relative to control; type: functional; conditions: read-out: Activity
[44] = system: CAKI-1; assay: Antiproliferative activity against human CAKI-1 cells assessed as cell growth at 10 uM relative to control; type: functional; conditions: read-out: Activity
[45] = system: ACHN; assay: Antiproliferative activity against human ACHN cells assessed as cell growth at 10 uM relative to control; type: functional; conditions: read-out: Activity
[46] = system: A498; assay: Antiproliferative activity against human A498 cells assessed as cell growth at 10 uM relative to control; type: functional; conditions: read-out: Activity
[47] = system: 786-0; assay: Antiproliferative activity against human 786-0 cells assessed as cell growth at 10 uM relative to control; type: functional; conditions: read-out: Activity
[48] = system: SK-OV-3; assay: Antiproliferative activity against human SK-OV-3 cells assessed as cell growth at 10 uM relative to control; type: functional; conditions: read-out: Activity
[49] = system: OVCAR-8; assay: Antiproliferative activity against human OVCAR-8 cells assessed as cell growth at 10 uM relative to control; type: functional; conditions: read-out: Activity
[50] = system: OVCAR-5; assay: Antiproliferative activity against human OVCAR-5 cells assessed as cell growth at 10 uM relative to control; type: functional; conditions: read-out: Activity
[51] = system: OVCAR-4; assay: Antiproliferative activity against human OVCAR-4 cells assessed as cell growth at 10 uM relative to control; type: functional; conditions: read-out: Activity
[52] = system: OVCAR-3; assay: Antiproliferative activity against human OVCAR-3 cells assessed as cell growth at 10 uM relative to control; type: functional; conditions: read-out: Activity
[53] = system: IGROV-1; assay: Antiproliferative activity against human IGROV-1 cells assessed as cell growth at 10 uM relative to control; type: functional; conditions: read-out: Activity
[54] = system: UACC-62; assay: Antiproliferative activity against human UACC-62 cells assessed as cell growth at 10 uM relative to control; type: functional; conditions: read-out: Activity
[55] = system: UACC-257; assay: Antiproliferative activity against human UACC-257 cells assessed as cell growth at 10 uM relative to control; type: functional; conditions: read-out: Activity
[56] = system: SK-MEL-5; assay: Antiproliferative activity against human SK-MEL-5 cells assessed as cell growth at 10 uM relative to control; type: functional; conditions: read-out: Activity
[57] = system: SK-MEL-28; assay: Antiproliferative activity against human SK-MEL-28 cells assessed as cell growth at 10 uM relative to control; type: functional; conditions: read-out: Activity
[58] = system: SK-MEL-2; assay: Antiproliferative activity against human SK-MEL-2 cells assessed as cell growth at 10 uM relative to control; type: functional; conditions: read-out: Activity
[59] = system: MDA-MB-435; assay: Antiproliferative activity against human MDA-MB-435 cells assessed as cell growth at 10 uM relative to control; type: functional; conditions: read-out: Activity
[60] = system: M14; assay: Antiproliferative activity against human M14 cells assessed as cell growth at 10 uM relative to control; type: functional; conditions: read-out: Activity
[61] = target: High affinity nerve growth factor receptor (Homo sapiens, UniProt P04629); assay: Inhibition of recombinant His-tagged human TRKA (441 to 796 residues) expressed in baculovirus expression system at 20 uM using 5-FAM-EEPLYWSFPAKKK-CONH2 as substrate preincubated for 1 hr followed by substrate addition in presence of ATP by mobility shift assay relative to control
[62] = system: KM12; assay: Cytotoxicity against human KM12 cells assessed as reduction in cell viability incubated for 72 hrs by resazurin based assay; type: functional; conditions: KM12, 72 h

High affinity nerve growth factor receptor, sequence (P04629 33-796 limits assumed): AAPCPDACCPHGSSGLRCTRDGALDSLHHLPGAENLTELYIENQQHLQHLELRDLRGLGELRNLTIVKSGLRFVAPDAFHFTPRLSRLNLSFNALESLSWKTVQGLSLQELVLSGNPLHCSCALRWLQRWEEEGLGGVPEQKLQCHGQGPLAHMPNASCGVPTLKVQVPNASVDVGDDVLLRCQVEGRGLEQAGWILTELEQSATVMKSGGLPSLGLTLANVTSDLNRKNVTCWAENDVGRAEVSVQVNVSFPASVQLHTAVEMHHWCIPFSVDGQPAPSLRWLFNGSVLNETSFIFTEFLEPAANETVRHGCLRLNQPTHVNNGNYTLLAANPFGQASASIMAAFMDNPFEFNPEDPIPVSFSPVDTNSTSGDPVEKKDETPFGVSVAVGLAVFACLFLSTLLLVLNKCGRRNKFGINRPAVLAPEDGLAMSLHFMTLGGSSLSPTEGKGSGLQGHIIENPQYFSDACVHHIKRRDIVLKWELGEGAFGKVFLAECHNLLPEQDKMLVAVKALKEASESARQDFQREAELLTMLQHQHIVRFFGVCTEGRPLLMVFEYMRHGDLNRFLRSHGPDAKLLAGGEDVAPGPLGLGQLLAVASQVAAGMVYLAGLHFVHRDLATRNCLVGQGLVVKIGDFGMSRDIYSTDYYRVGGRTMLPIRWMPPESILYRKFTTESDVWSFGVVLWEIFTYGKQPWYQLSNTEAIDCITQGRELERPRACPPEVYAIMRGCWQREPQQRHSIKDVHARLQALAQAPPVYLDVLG

## Cn1cc(-c2cc3ncnc(Nc4ccc(CC(=O)Nc5ccc(C(C)(C)C)cc5)cc4)c3s2)cn1
[1]
  growth at 10 µM: 108%
[2]
  growth at 10 µM: 106%
[3]
  growth at 10 µM: 102%
[4]
  growth at 10 µM: 88.3%
[5]
  growth at 10 µM: 75%
[6]
  growth at 10 µM: 101%
[7]
  growth at 10 µM: 66.9%
[8]
  growth at 10 µM: 117%
[9]
  growth at 10 µM: 101%
[10]
  growth at 10 µM: 119%
[11]
  growth at 10 µM: 22.4%
[12]
  growth at 10 µM: 102%
[13]
  growth at 10 µM: 102%
[14]
  growth at 10 µM: 104%
[15]
  growth at 10 µM: 136%
[16]
  growth at 10 µM: 120%
[17]
  growth at 10 µM: 93%
[18]
  growth at 10 µM: 99%
[19]
  growth at 10 µM: 99.7%
[20]
  growth at 10 µM: 106%
[21]
  growth at 10 µM: 95.5%
[22]
  growth at 10 µM: 132%
[23]
  growth at 10 µM: 125%
[24]
  growth at 10 µM: 93.2%
[25]
  growth at 10 µM: 98.3%
[26]
  growth at 10 µM: 102%
[27]
  growth at 10 µM: 103%
[28]
  growth at 10 µM: 97.5%
[29]
  growth at 10 µM: 91.5%
[30]
  growth at 10 µM: 97.8%
[31]
  growth at 10 µM: 100%
[32]
  growth at 10 µM: 90.9%
[33]
  growth at 10 µM: 93.7%
[34]
  growth at 10 µM: 107%
[35]
  growth at 10 µM: 88.8%
[36]
  growth at 10 µM: 105%
[37]
  growth at 10 µM: 96.2%
[38]
  growth at 10 µM: 98.2%
[39]
  growth at 10 µM: 99.1%
[40]
  growth at 10 µM: 102%
[41]
  growth at 10 µM: 98.6%
[42]
  growth at 10 µM: 98.5%
[43]
  growth at 10 µM: 93.2%
[44]
  growth at 10 µM: 86%
[45]
  growth at 10 µM: 84.3%
[46]
  growth at 10 µM: 88.1%
[47]
  growth at 10 µM: 101%
[48]
  growth at 10 µM: 120%
[49]
  growth at 10 µM: 103%
[50]
  growth at 10 µM: 118%
[51]
  growth at 10 µM: 98.6%
[52]
  growth at 10 µM: 110%
[53]
  growth at 10 µM: 98.2%
[54]
  growth at 10 µM: 101%
[55]
  growth at 10 µM: 110%
[56]
  growth at 10 µM: 98.3%
[57]
  growth at 10 µM: 107%
[58]
  growth at 10 µM: 105%
[59]
  growth at 10 µM: 104%
[60]
  growth at 10 µM: 102%

## Fc1ccc(Nc2ncnc3ccsc23)cc1
[61]
  inhibition: 17.4%
[62]
  IC50: 133 µM
